# Publication PMC11414412, “Design and synthesis new indole-based aromatase/iNOS inhibitors with apoptotic antiproliferative activity” (Frontiers in Chemistry, 2024)
# Read-outs that look alike come from different tables or passages of the source.
# Tests used:
# [1] = biological target: aromatase; details: read-out: Aromatase inhibition IC50, cited from earlier work
# [2] = test system: Bcl-2; assay: Bcl-2 inhibition assay; assay type: cell-based, human; details: lung (A-549) cancer cells, compound at IC50
# Protocol: 4.2.8. Bcl-2 inhibition assay
# Mix all reagents thoroughly without foaming before use. Wash the microwells twice with approximately 300 μL Wash Buffer per well with thorough aspiration of microwell contents between washes. Take caution not to scratch the surface of the microwells. After the last wash, empty the wells and tap microwell strips on absorbent pad or paper towel to remove excess Wash Buffer. Use the microwell strips immediately after washing or place upside down on a wet absorbent paper for not longer than 15 minutes. […] Add 100 μL of Sample […]
# Diluent in duplicate to all standard wells and to the blank wells. Prepare standard (1:2 dilution) in duplicate ranging from 32 ng/mL to 0.5 ng/mL. Add 100 μL of Sample Diluent, in duplicate, to the blank wells. Add 80 μL of Sample Diluent, in duplicate, to the sample wells. Add 20 μL of each Sample, in duplicate, to the designated wells. Add 50 μL of diluted biotin-conjugate to all wells, including the blank wells. Cover with a plate cover and incubate at room temperature, on a microplate shaker at 100 rpm if available, for 2 hours. Remove plate cover and empty the wells.
# Wash microwell strips 3 times as described in step 2. Add 100 μL of diluted Streptavidin-HRP to all wells, including the blank wells. Cover with a plate cover and incubate at room temperature, on a microplate shaker at 100 rpm if available, for 1 hour. Remove plate cover and empty the wells.
# Wash microwell strips 3 times as described in step 2. Proceed to the next step. Pipette 100 μl of mixed TMB Substrate Solution to all wells, including the blanks. Incubate the microwell strips at room temperature (18° to 25°C) for about 15 minutes, if available on a rotator set at 100 rpm.
# Avoid direct exposure to intense light. The point, at which the substrate reaction is stopped, is often determined by the ELISA reader. Many ELISA readers record absorbance only up to 2.0
# O.D. Therefore, the color development within individual microwells must be watched by the person running the assay and the substrate reaction stopped before positive wells are no longer properly detectable. Stop the enzyme reaction by quickly pipetting 100 μL of Stop Solution into each well, including the blank wells. It is important that the Stop Solution is spread quickly and uniformly throughout the microwells to completely inactivate the enzyme. Results must be read immediately after the Stop Solution is added or within one hour i f the microwell strips are stored at 2 - 8°C in the dark. Read absorbance of each microwell on a spectrophotometer using 450 nm as the primary wavelength.
# [3] = test system: Bax; assay: Bax activation assay; assay type: cell-based, human; details: lung (A-549) cancer cells, compound at IC50
# Protocol: Cells were obtained from American Type Culture Collection, cells were grown in RPMI 1640 containing 10% fetal bovine serum at 37°C, stimulated with the compounds to be tested for caspase8, and lysed with Cell Extraction Buffer. This lysate was diluted in Standard Diluent Buffer over the range of the assay and measured for human active caspase-8 content. […]
# 4.2.7. Bax activation assay
# Bring all reagents, except the human Bax-α Standard, to room temperature for at least 30 minutes prior to opening. The human Bax-α Standard solution should not be left at room temperature for more than 10 minutes. All standards, controls and samples should be run in duplicate. Refer to the Assay Layout Sheet to determine the number of wells to be used and put any remaining wells with the desiccant back into the pouch and seal the ziploc. Store unused wells at 4 °C. Pipet 100 μL of Assay Buffer into the S0 (0 pg/mL standard) wells. Pipet 100 μL of Standards #1 through #6 into the appropriate wells. Pipet 100 μL of the Samples into the appropriate wells. Tap the plate gently to mix the contents. Seal the plate and incubate at room temperature on a plate shaker for 1 hour at ~500 rpm. Empty the contents of the wells and wash by adding 400 μL of wash solution to every well. Repeat the wash 4 more times for a total of 5 washes. After the final wash, empty or aspirate the wells and firmly tap the plate on a lint free paper towel to remove any remaining wash buffer.
# Pipet 100 μL of yellow Antibody into each well, except the Blank. Seal the plate and incubate at room temperature on a plate shaker for 1 hour at ~500 rpm. Empty the contents of the wells and wash by adding 400 μL of wash solution to every well. Repeat the wash 4 more times for a total of 5 washes. After the final wash, empty or aspirate the wells and firmly tap the plate on a lint free paper towel to remove any remaining wash buffer. Add 100 μL of blue Conjugate to each well, except the Blank. Seal the plate and incubate at room temperature on a plate shaker for 30 minutes […]
# Pipet 100 μL of Substrate Solution into each well. Incubate for 30 minutes at room temperature on a plate shaker at ~500 rpm. Pipet 100 μL Stop Solution to each well. Blank the plate reader against the Blank wells, read the optical density at 450 nm. Calculate the average net Optical Density (OD) bound for each standard and sample by subtracting the average Blank OD from the average OD for each standard and sample. Using linear graph paper, plot the Average Net OD for each standard versus Bax concentration in each standard. Approximate a straight line through the points.
# The concentration of Bax in the unknowns can be determined by interpolation. […]
structure (smiles),measurement,setting,value
N#Cc1c(-c2ccccc2)[nH]c2ccccc12 [compound VII],IC50,"[1]; 2-aryl indole series, ref Prior et al., 2017",1610 nM
COc1ccc(S(=O)(=O)NCCc2c(C(c3ccc(O)cc3)c3[nH]c4ccccc4c3CCNS(=O)(=O)c3ccc(OC)cc3)[nH]c3ccccc23)cc1 [compound VIII],IC50,"[1]; bis-/tris-indole sulfonamide series, ref Pingaew et al., 2018",700 nM
O=S(=O)(Cc1ccccc1)Nc1ccc2[nH]ccc2c1 [derivative IX],IC50,"[1]; indole aryl sulfonamide series, ref Fantacuzzi et al., 2020",160 nM
"CN[C@@H]1C[C@H]2O[C@@](C)([C@@H]1OC)n1c3ccccc3c3c4c(c5c6ccccc6n2c5c31)C(=O)NC4 [Staurosporine, reference compound]",Bcl-2 Conc,[2],1.00 ng/mL
same,Bax Conc,[3],288 ± 2 pg/mL
